Here are results for eight molecules from patent US8637556B2, “Linked Myc-max small molecule inhibitors” (University of Pittsburgh—Of the Commonwealth System of …, priority 2009, dated 2014).

In experiment [1] the target is T1, c-Myc353-437 (monomeric c-Myc bHLH-ZIP) (Homo sapiens, UniProt P01106).
T1 construct: recombinant monomeric c Myc bHLH-ZIP (amino acids 353-437); 6xHis with TEV site (N, cleaved yes); made in house; host or cells: E. coli BL21DE3(pLysS)
Nature of the experiment: Fluorescence polarization titration, c-Myc bHLH-ZIP binding. The conditions noted are these: for Kd: Table 1; for c-Myc binding affinity (in words): FP. An excerpt: A c-Myc353-437 full-length bHLH-ZIP domain and its truncated version c-Myc390-439 were produced from the c-Myc/pET SKB3 construct, kindly supplied by Dr. S. K. Nair (University of Illinois, Urbana-Champaign), by insertion into the pET151D vector, encoding an N-terminal hexahistidine (6× His), separated by a TEV protease digestion site, with the TOPO® ligation system, and over-expressed in E. coli BL21DE3(pLysS). The 6× His tagged human Max isoform p21, with low homodimerization affinity^70, cloned into the pQE10 vector (Qiagen, Inc.), was over-expressed in E. coli M15(pRep4). Bacterial cultures were grown at 37° C. in LB medium to OD600≈0.8, then induced with 0.5 mM IPTG for 5 hours. Proteins were purified by Ni-agarose chromatography with a pH gradient elution. The 6× His tag of c-MYC353-437 and c-Myc390-439 was cleaved using TEV protease (the TEV protease was expressed in a pET24 vector [courtesy of S. K. Nair] and purified by Ni-agarose chromatography under native conditions). All the proteins were further purified by HPLC and lyophilized. Protein concentrations were determined by measurement of OD280. The synthetic peptide c-Myc363-381 is described in Follis, A. V., Hammoudeh, D. I., Wang, H., Prochownik, E & Metallo, S. J. Structural rationale for the coupled binding and unfolding of the c-Myc oncoprotein by small molecules. Chemistry & Biology 15, 1149-1155 (2008).
Samples were analyzed in a Photon Technology International QuantaMaster fluorimeter (Birmingham, N.J.) equipped with polymer sheet polarizers. Titration experiments were performed upon serial dilution of 1:1 equimolar solution of inhibitor and either c-Myc353-437, c-Myc390-439 or c-Myc363-381 in a 1×PBS buffer (137 mM NaCl, 2.7 mM KCl, 4.3 mM Na2HPO4, 1.4 mM KH2PO4, pH=7.4), 5% DMSO, over concentrations ranging between 200 μM and 1.5 nM. Excitation and emission wavelengths were independently determined for each inhibitor. Reported data represent the average of at least three independent experiments. Data were fit to a quadratic equation derived from the thermodynamic expression of binding equilibrium:
[formula] where [C]0 represents the total concentration of inhibitor and of c-Myc peptide. The value of KD was determined from the experimental polarization data by fitting to Eq. 2 using KaleidaGraph (Synergy Software, Reading, Pa.) where pol0 is the polarization in the absence of binding and Δpol is the total change in polarization (Park, S. H. & Raines, R. T. Fluorescence polarization assay to quantify protein-protein interactions. Methods in Molecular Biology 261, 161-6 (2004)).
[formula] Due to the very tight binding of some of the tested compounds, it was impossible to perform a full binding titration with an acceptable fluorescence intensity, therefore the polo parameter was experimentally determined from samples of each compound in the absence of c-Myc353-437 at a concentration of 25 μM. Binding specificity experiments were performed by monitoring the FP of 10 μM inhibitors solutions in the above-described buffer in the presence of equimolar p21 Max. […] Circular Dichroism.
Also in this case the c-Myc binding affinity was little affected by the introduction of the linker chain (Table 1, FIG. 11).
We then measured the affinity of the synthesized bivalent inhibitors, by monitoring the FP of the compounds nitrobenzofurazan moiety. […] The estimated free energy of binding of the bivalent compounds was roughly proportional to the sum of those of their monovalent components. In the thermodynamic analysis of multivalent binding a ΔG^s term is used to relate the free energy of binding of a multivalent compound to the sum of those of its monovalent components. This term implies the diverse energy contributions resulting from the linking of independent binding components. The ΔG^s term generally constitutes a negative contribution to the binding affinity of distinct binding components connected by a flexible linker to a given target.
A general note: Polarisation of emitted light reports the rotation of a fluorescent probe.

Experiment [2] relates to Daudi Burkitt lymphoma cells. Nature of the experiment: Burkitt's lymphoma cell growth inhibition (MTT assay). The class given is cell-based. The conditions noted are these: Homo sapiens, Table 3, MTT, third day, read-out: Growth inhibition BL. The protocol:
(§1) These assays were performed as previously described using HL60 promyelocytic leukemia cells and Daudi Burkitt lymphoma cells, each of which expresses high levels of endogenous c-Myc (Wang, H. et al. Mol. Cancer Ther. 6, 2399-408 (2007)). As controls for non-specific effects of bivalent compounds, we utilized a c-Myc nulllizygous strain of rat fibroblasts (Mateyak, M. K., et al. Cell Growth & Differentiation 8, 1039-48 (1997)) expressing the c-Myc target genes MT-MC1 and HMGAIb, each of which restores a normal growth rate as well as the TGR1 fibroblast line from which the nullizygous line was derived (Wang, H. et al. Mol. Cancer Ther. 6, 2399-408 (2007); Mateyak, M. K., et al. Cell Growth & Differentiation 8, 1039-48 (1997); and Rothermund, K. et al. Cancer Research 65, 2097-107 (2005)). […] Cell quantification was performed on triplicate wells over the ensuing 4-5 days without changing the medium by measuring the absorbance at 490 nm using the MTT assay (Mosmann, T. Journal of Immunological Methods 65, 55-63 (1983)). IC50 values were estimated from linear regression of the inhibition data at the third day of each experiment.
(§2) We evaluated the efficacy of the linked compounds 11, 12, 13, 16, 17, 18 in inhibiting the c-Myc-Max interaction by measuring the binding of a target DNA sequence (E-Box) by the protein heterodimers in an electrophoretic mobility shift assay (EMSA). […] A fluorinated substitute of 14, 24, the choice of which was based upon the results of structure activity relationship studies described in Wang, H. et al. (Mol. Cancer Ther. 6, 2399-408 (2007)), was employed at this purpose (Muller, K., et al. Science 317, 1881-6 (2007) and Kirk, K. L. Current Topics in Medicinal Chemistry 6, 1447-56 (2006)).
A general note: Tetrazolium dyes change colour on reduction, which living cells bring about.

In experiment [3] the test system is HL60 promyelocytic leukemia cells. Nature of the experiment: HL60 cell growth inhibition (MTT assay). The class given is cell-based. The conditions noted are these: Homo sapiens, HL-60; Table 3; MTT, third day; read-out: Growth inhibition HL60. The protocol:
as §1, §2

Where [4] appears, read: FP titration with c-Myc353-437, 1xPBS pH 7.4, 5% DMSO, read-out: KD (c-Myc affinity, monovalent).

Molecules are shown by their SMILES. Where two headings read alike, the source gives them in different places.

T1 sequence (P01106 368-452): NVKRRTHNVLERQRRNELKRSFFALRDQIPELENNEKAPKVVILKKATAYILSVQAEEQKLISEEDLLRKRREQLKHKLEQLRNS

Take `CCc1ccc(C=C2SC(=O)N(CCCCNC(=O)c3ccc(Nc4ccc([N+](=O)[O-])c5nonc45)cc3)C2=O)cc1` [compound 21]: the Kd in experiment [1] (FP of nitrobenzofurazan moiety, c-Myc353-437, read-out: KD (c-Myc affinity, bivalent)) came to 0.004 ± 0.001 µM. For the same molecule, the results for the IC50 in experiment [2] and in experiment [3] were 14 to 16 µM and 7 to 9 µM, respectively.
Regarding `CN(C)c1ccc([N+](=O)[O-])c2nonc12` [compound 4], the “c-Myc binding affinity (in words)” value in experiment [1] is “complete loss of binding affinity”. In addition, the Kd in experiment [1] (setting [4]) was over 200 µM.
Regarding `O=[N+]([O-])c1ccc(Nc2ccccc2)c2nonc12` [compound 3], the “c-Myc binding affinity (in words)” value in experiment [1] is on record as “minor loss of c-Myc affinity”. Moreover, the Kd in experiment [1] (setting [4]) stood at 7 ± 1 µM.
For the molecule `CCc1ccc(C=C2SC(=S)NC2=O)cc1` [compound 2, (Z,E)-5-(4-ethyl-benzylidene)-2-thioxo-thiazolidin-4-one, reference compound], the values for the IC50 in experiment [2] and in experiment [3] were 40 µM and 50 µM, respectively.
Regarding `O=C(O)c1ccc(Nc2ccc([N+](=O)[O-])c3nonc23)cc1` [compound 7], the Kd in experiment [1] (setting [4]) is 3 ± 1 µM. In experiment [1] (relative to compounds 5 and 6), the “c-Myc binding, times tighter than 5 and 6” value is reported as about 5 times.
Consider `O=C(O)c1cccc(Nc2ccc([N+](=O)[O-])c3nonc23)c1` [compound 6], for which, in experiment [1] (setting [4]), the Kd stood at 16 ± 6 µM.
Same read-out and setting: with `O=C(O)c1ccccc1Nc1ccc([N+](=O)[O-])c2nonc12` [compound 5] the figure was 13 ± 5 µM.
Consider `CC(=O)NCCCCCNC(=O)c1ccc(C=C2SC(=S)NC2=O)cc1` [compound 10], for which, in experiment [1] (setting [4]), the Kd came out at 90 ± 40 µM.
